Assay [1] concerns PAAFs. The experiment in a line: PAAFs in soft or stiff matrix: fibrotic gene expression, immunoblot, collagen secretion. The class given is cell-based, human. The protocol: Cell Culture and Reagents: Primary human pulmonary arterial adventitial fibroblast cells (PAAFs) were purchased and propagated in FGM cell culture media (Lonza). Experiments were performed at passages 3 to 6. Primary human pulmonary fibroblast cells (PFs) were purchased and propagated in FGM cell culture media (Lonza). Primary human pulmonary arterial endothelial cells (PAECs) were purchased and propagated in EGM-2 cell culture media (Lonza). Experiments were performed at passages 3 to 6. Primary human pulmonary arterial smooth muscle cells (PASMCs) were purchased and propagated in SmGM-2 cell culture media (Lonza). Experiments were performed at passages 3 to 9. HEK293T cells (American Type Culture Collection) were used and cultivated in DMEM containing 10% fetal bovine serum (FBS). Cells were propagated in coated collagen plastic (50 ug/mL) at 37° C. in a humidified 5% CO2 atmosphere. Collagen-coated hydrogel were purchased.
3D cell culture: Protocol was adapted from previously published protocol (Aragona M et al, 2013 Cell). Cells were embedded in a mixture of Growth Factor Reduced Matrigel (BD Biosciences) and Collagen-I (BD Biosciencres). Collagen-I solution was neutralized on ice with 0.1M NaOH in PBS and adjusted with 0.1N HCl to bring the pH of the solution to 7.5. The Collagen-I solution was then mixed on ice with Matrigel to obtain a final concentration of 1.2 mg/ml (soft matrices) or 3 mg/ml (stiff matrices). Cells were trypsinized, counted, resuspended in growth medium; then, 1 volume of cells was mixed with 1 volume of the ECM mix. 6-well plated were precoated with 1 ml of cellfree 50% medium/50% ECM, and left in the incubator until gelled; then, cells were seeded in drop on top of the pregelled ECM. After gelling, wells were supplemented with normal growth medium, which was changed every 2 days during the experiments.
Oligonucleotides and Transfection: Pre-miRNA oligonucleotides (pre-miR-130a, negative control pre-miR-NC1 and premiR-NC2) and custom designed tiny LNA oligonucleotides (tiny-130: 5′-[…]-3′ (SEQ ID NO: 52), and tiny-NC 5′-[…]-3′ (SEQ ID NO: 54)) were purchased from Life Technologies/Ambion and Exiqon, respectively. siRNAs for PPARγ and OCT4/POU5F1 were purchased from Santa Cruz Biotechnology. siRNA for TIMP2 was purchased from Life Technologies. On Target Plus siRNAs for YAP1, TAZ (WWTR1), LRP8 and scrambled control were purchased from ThermoScientific/Dhermacon. PAAF, PF, PAEC and PASMC were plated in collagen-coated dish (50 ug/mL) and transfected 24 h later at 70-80% confluence using pre-miRNA (5 nM), tiny-LNA (20 nM) or siRNA (25 nM) and Lipofectamine 2000 reagent (Life Technologies), according to the manufacturers' instructions. 8 hours after transfection cells were trypsinized and re-plated in the different hydrogel/3D-matrix.
Primary human pulmonary arterial adventitial fibroblast cells (PAAFs) were purchased (ScienCell Research Laboratories) and grown in FGM cell culture media (Lonza). Experiments were performed at passages 3 to 6. Primary human pulmonary arterial endothelial cells (PAECs) were grown in EGM-2 cell culture media (Lonza), and experiments were performed at passages 3 to 6. Primary human pulmonary arterial smooth muscle cells (PASMCs) were cultured in SmGM-2 cell culture media (Lonza), and experiments were performed at passages 3 to 9. HEK293T cells (American Type Culture Collection) were cultivated in DMEM containing 10% fetal bovine serum (FBS). […]

In assay [2] the test system is PAAFs. The experiment in a line: ECM remodeling experiment (naïve PAAFs plated on remodeled ECM). The assay is classed as cell-based, human. The protocol:
After the different treatment cells were fixed with PBS/PFA 4% for 10 min and permeabilized with PBS/Triton 100×0.1% for 10 min. Then cells were incubated with anti-YAP1 (#4912; 1/100; Cell signaling) at 4° C. overnight. Secondary antibodies coupled with Alexa-594 (Life Technologies) were used at 1:500. Nuclei were counterstained with DAPI (Sigma).
Following treatment, PAAFs were plated atop soft matrices (see below) in normal growth medium supplemented with 0.5% FBS. After three days, 10 ug/mL of puromycin was added to the growth medium for 48 hours to detach the cells from the matrix. Matrices were washed 3 times (PBS). Naïve PAAFs were then plated on top of these matrices supplemented with normal growth medium 0.5% FBS or harvested for assessment of collagen crosslinking (Picrosirius Red stain). Sixteen hours later, cells were harvested for immunofluorescence experiments or RNA extraction.
(§1) Picrosirius Red stain was achieved through the use of 5 μm paraffin sections stained with 0.1% Picrosirius Red (Direct Red80, Sigma-Aldrich) and counterstained with Weigert's hematoxylin to reveal fibrillar collagen. The sections were then serially imaged using with an analyzer and polarizer oriented parallel and orthogonal to each other. Microscope conditions (lamp brightness, condenser opening, objective, zoom, exposure time, and gain parameters) were constant throughout the imaging of all samples. A minimal threshold was set on appropriate control sections for each experiment in which only the light passing through the orthogonally-oriented polarizers representing fibrous structures (i.e., excluding residual light from the black background) was included. The threshold was maintained for all images across all conditions within each experiment. The area of the transferred regions that was covered by the thresholded light was calculated and at least 10 sections/vessel per condition were averaged together (Image J software).

The subject of assay [3] is pulmonary tissue and pulmonary vasculature of mice. The experiment in a line: Forced expression of miR-130a in mouse lung (SU5416, intrapharyngeal mimic) with or without rosiglitazone or BAPN.
Description: In the presence of SU5416 (days of injection are highlighted in red) but in the absence of hypoxia, intrapharyngeal injection of wildtype mice was performed serially 4 times at 1 week intervals with 1 nmol of miR-NC or 1 nmol of miR-130a (days of administration are in black). During this period, mice were treated daily by oral gavage with 20 mg/kg of rosiglitazone or vehicle. At day 25, echocardiography and right heart catheterization was performed followed by euthanasia and blood/tissue sampling.
Eight-week-old mice (C57Bl6) were injected with SU5416 weekly (20 mg/kg/dose; Sigma-Aldrich), accompanied by 4 intrapharyngeal injections (once by week) of 1 nmol of miR-control (pre-miR-NC) or miR-130a (pre-miR-130a) mixed in 100 uL PBS solution containing 5% Lipofectamine 2000 (Life Technologies). Three days after the last injection, right heart catheterization was performed as previously described (9), followed by harvest of lung tissue for RNA extraction or paraffin embedding, as described above. Rosiglitazone (Cayman Chemicals) was dissolved in 0.25% carboxymethyl cellulose medium viscosity aqueous solution. This rosiglitazone solution versus vehicle control was delivered daily (20 mg/kg/day) by oral gavage to mice for 3 weeks.
After physiological measurements, blood was extracted by cardiac puncture for future analyses (hematocrit, plasma extraction). By direct right ventricular puncture, the pulmonary vessels were gently flushed with 1 cc of saline to remove the majority of blood cells, prior to harvesting cardiopulmonary tissue. The heart was removed, followed by dissection and weighing of the right ventricle (RV) and of the left ventricle+septum (LV+S). Organs were then harvested for histological preparation or flash frozen in liquid N2 for subsequent homogenization and extraction of RNA and/or protein. To further process lung tissue specifically, prior to excision, lungs were flushed with PBS at constant low pressure (˜10 mmHg) via right ventricular cannulation, followed by tracheal inflation of the left lung with 10% neutral-buffered formalin (Sigma-Aldrich) at a pressure of −20 cm H2O. After excision and 16 hours of fixation in 10% neutral-buffered formalin at 25° C., lung tissues were paraffin-embedded via an ethanol-xylene dehydration series, before being sliced into 5 μm sections (Hypercenter XP System and Embedding Center, Shandon).
Lung sections (5 μm) were deparaffinized and high temperature antigen retrieval was performed followed by blocking in TBS/BSA 5%, 10% goat serum and exposure to primary antibody and biotinylated secondary antibody (Vectastain ABC kit, Vector Labs). In most cases, color development was achieved by adding streptavidin-biotinylated alkaline phosphatase complex (Vector Labs) followed by Vector Red alkaline phosphatase substrate solution (Vector Labs). Levamisole was added to block endogenous alkaline phosphatase activity (Vector Labs). Pictures were obtained using an Olympus Bx51 microscope (40× objective). Small pulmonary vessels (<100 μm diameter) present in a given tissue section (>10 vessels per section) that were not associated with bronchial airways were selected for analysis (N>5 animals per group). Intensity of staining was quantified using ImageJ software (NIH). Degree of pulmonary arteriolar muscularization was assessed in paraffin-embedded lung sections stained for α-SMA by calculation of the proportion of fully and partially muscularized peripheral (<100 μm diameter) pulmonary arterioles to total peripheral pulmonary arterioles, as previously described (29). Medial thickness was also measured in α-SMA stained vessels (<100 μm diameter) using ImageJ software (NIH) and expressed as arbitrary units. All measurements were performed blinded to condition.
Assay [4] deals with hypoxia-induced PH in mice. The experiment in a line: Hypoxia-induced PH in mice: BAPN (prevention, rescue) or GW3965 (prevention). The assay is classed as in vivo, mouse.
Description: Finally, we wanted to determine if ApoE activity and/or LOX-dependent vascular stiffening were essential for ECM stiffening and PH development by miR-130/301. To assess the importance of ApoE activity, we attempted to prevent PH in mice via treatment with daily dietary ingestion of the liver-X nuclear hormone receptor (LXR) agonist GW3965, a known pharmacologic inducer of ApoE (Pencheva et al., 2014), simultaneously with hypoxia (FIGS. 62A-62H and 68A-H). Alternatively, experiments were designed to either prevent or reverse hypoxia-induced PH in mice via serial treatment with a pharmacologic inhibitor of LOX (Levental et al., 2009), β-aminopropionitrile BAPN, administered either simultaneously with hypoxia exposure (“prevention”) or after disease development (“reversal”) (FIGS. 62A-62H and 68A-H). In all cases of GW3965 or BAPN treatment, collagen crosslinking (FIG. 62D, 62H, FIG. 68) was inhibited, leading to decreased indices of PH, as reflected by RVSP (FIG. 62A, 62E), right ventricular remodeling (RV/LV+S ratio; FIG. 62B, 62F) and pulmonary arteriolar muscularization (FIG. 62C, 62G). GW3965 or BAPN treatment also reversed Pparγ and Lrp8 down-regulation (FIGS. 68A-68H) as well as reduced YAP nuclear localization (FIG. 62D, 62H) and YAP activation, as reflected by decreased Ctgf (FIGS. 68A-68H). Thus, considering the convergent data regarding pharmacologic manipulation of miR-130/301, APOE, and LOX, we can conclude that the YAP-TAZ-miR-130/301 circuit and its downstream network of targets act as master regulators of ECM remodeling in PH and represent a new set of targets for tailored molecular therapy in this disease.
To determine the effects of the LXR agonist GW3965 (Sigma-Aldrich) and consequent APOE induction on PH development, as previously described (Pencheva et al., 2014), mice were exposed to normobaric hypoxia and simultaneously assigned to control chow or chow supplemented with GW3965 (Research Diets, Inc.) at doses of 100 mg of drug per kilogram of mouse per day (based on average daily intake of […] of chow).
as §1
This protocol was adapted from a previously published protocol (Hu et al.). Mouse lung was weighed, minced, and incubated in 0.5 M acetic acid at 4° C. After overnight digestion, the acetic acid-soluble and insoluble fractions were isolated by centrifugation. The soluble fraction was stored at −80° C., while the insoluble fraction was digested by overnight incubation in 6M hydrochloric acid at 85° C. Concentrations of soluble and insoluble (gelatinous) collagen fractions were determined using a Sircol Soluble Collagen Assay Kit (Biocolor) with a colorimetric reaction (measured at 550 nm) and a provided collagen reference standard curve.

Where [5] appears, read: rosiglitazone or BAPN on top of miR-130a.

“Also recorded” adds a separate entry of the source.

For the molecule “ApoE: Recombinant ApoE (PeproTech) used at 5 μM in growth media”, the “collagen content of conditioned media (collagen secretion)” value with PAAFs [1] (PAAFs) is given as “disrupted; also recorded: reversed”. In addition, the “miR-130a-induced up-regulation of collagen, CTGF, and LOX” value in the assay with PAAFs [1] (PAAFs exposed to exogenous ApoE) was “resistant”. The “collagen crosslinking of remodeled ECM” value in the assay on PAAFs [2] (Picrosirius Red) is listed as “reversed”. In addition, in the assay with PAAFs [2] (RT-qPCR), the “collagen, LOX, CTGF, and POU5F1/OCT4 in naïve cells plated on remodeled ECM” value was “negligible alterations”; the “miR-130/301 in naïve cells plated on remodeled ECM” value was “reversed”.
On to `N#CCCN` [BAPN, β-aminopropionitrile], for which, in assay [3] (BAPN 30 mg/kg/day, Picrosirius Red and in situ staining), the “miR-130a-mediated changes in collagen, α-SMA, YAP staining and perivascular collagen crosslinking” value is recorded as “decrease; also recorded: blunted”. Moreover, the “YAP activation and downstream PH manifestations” value in assay [3] (BAPN in miR-130-exposed mice) is recorded as “reversed”. In addition, the “Ctgf, collagen isoforms and Lox expression in lung” value in assay [3] (RT-qPCR, BAPN on top of miR-130a) is given as “temper; also recorded: blunted”. Also, the “right ventricular systolic pressure (RVSP)” value in assay [3] (SU5416 mice, miR-130a 1 nmol x4, rosiglitazone 20 mg/kg daily oral or BAPN 30 mg/kg/day on top of miR-130a) is reported as “lessened”. Further, the “total (soluble) collagen and crosslinked (insoluble) collagen in whole lung” value in assay [3] (Sircol / biochemical analysis, BAPN on top of miR-130a) is listed as “reversed; also recorded: decreased”. In assay [3] (setting [5]), the “percentage of muscularized small pulmonary arterioles” value was “lessened” and the “right ventricular remodeling, RV/(LV+S) mass ratio” value is listed as “lessened”. Further, the perivascular collagen crosslinking entry in assay [4] (Picrosirius Red) was “inhibited; also recorded: decreased”. The “Ctgf, collagen isoforms, and Lox in lung” value in assay [4] (RT-qPCR) is listed as “blunted”. Also, in assay [4] (Sircol assay), the “whole lung collagen content and crosslinked collagen” value is “normalized by BAPN rescue treatment, and kept at baseline by preventative BAPN treatment; also recorded: nearly normalized by BAPN rescue treatment and largely maintained at baseline by BAPN prevention treatment”. Also, in assay [4] (hypoxic mice), the arteriolar muscularization entry was “decreased; also recorded: both prevented and reversed”; the “right ventricular hypertrophy (Fulton index, RV/LV+S)” value was “decreased; also recorded: both prevented and reversed”. Moreover, the RVSP entry in assay [4] (hypoxic mice, BAPN prevention and rescue, GW3965 100 mg/kg/day in chow) was “decreased; also recorded: both prevented and reversed”. Further, in assay [4] (in situ staining), the “hypoxia mediated decreases of Lrp8 and Pparγ” value is “reversed; also recorded: either prevented or rescued”; the “hypoxia-mediated increases of α-SMA and YAP” value was “reduced; also recorded: blunted”.

Values taken from patent US20170226507A1, “COORDINATE CONTROL OF PATHOGENIC SIGNALING BY THE MIR-130/301 FAMILY IN PULMONARY HYPERTENSION AND FIBROPROLIFERATIVE DISEASES” (The Brigham and Women's Hospital, Inc., priority 2014, published 2017).
